Reference: ChEMBL document CHEMBL5223091, “Targeting the Mitotic Kinesin KIF18A in Chromosomally Unstable Cancers: Hit Optimization Toward an In Vivo Chemical Probe” (J Med Chem, 2022)
pEC50, pIC50: −log10 of the molar value. Values after ≈ are worked out from the molar mass of the structure shown.

Legend:
[1] = Oral bioavailability in CD-1 mouse at 10 mg/kg; format: ADME, organism-based; conditions: in vivo
[2] = molecular target: Centromere-associated protein E (Homo sapiens, UniProt Q02224); assay: Inhibition of recombinant GST-tagged human CENP-E assessed as inhibition of microtubule-stimulated ATPase activity preincubated for 30 mins followed by ATP addition and further incubated for 15 mins by ADP-Glo reagent based assay
[3] = Plasma concentration in CD-1 mouse xenografted with human OVCAR-3 cells at 100 mg/kg, po measured upto 24 hrs by LC-MS/MS analysis; format: ADME, organism-based
[4] = Plasma concentration in CD-1 mouse at 100 mg/kg, po measured after 24 hrs; format: ADME, organism-based
OVCAR-3 [5] = assay: Antimitotic activity in human OVCAR-3 cells xenografted in CD-1 mouse assessed as time prolongation of mitotic arrest per day at 100 mg/kg, po; format: functional
[6] = Unbound fraction in CD-1 mouse plasma xenografted with human OVCAR-3 cells at 100 mg/kg, ip by LC-MS/MS analysis; format: ADME, organism-based
[7] = Cmax in CD-1 mouse xenografted with human OVCAR-3 cells at 100 mg/kg, po by LC-MS/MS analysis; format: ADME, organism-based; parameters: dose 100 mg/kg, route po; conditions: in vivo
[8] = Half life in CD-1 mouse at 1 mg/kg, iv and 10 mg/kg, po; format: ADME, organism-based; conditions: in vivo
[9] = Drug uptake in CD-1 mouse xenografted with human OVCAR-3 cells measured in tumor at 100 mg/kg, po measured after 8 hrs; format: ADME, organism-based, Neoplasm; conditions: read-out: Drug uptake
[10] = Cmax in CD-1 mouse at 1 mg/kg, iv and 10 mg/kg, po; format: ADME, organism-based; parameters: dose 10 mg/kg, route po; conditions: in vivo
[11] = Kinetic solubility of compound in FaSSIF; format: ADME; conditions: read-out: Kinetic_solubility
[12] = molecular target: T1, Kinesin-like protein KIF18A (Homo sapiens, UniProt Q8NI77); assay: Inhibition of recombinant His-tagged human KIF18A (1 to 467 residues) expressed in Trichoplusia ni insect cells assessed as inhibition of microtubule-stimulated ATPase activity preincubated for 30 mins followed by ATP addition and further incubated for 15 mins by ADP-Glo reagent based assay; parameters: species or system Insect cell
T1 sequence (Q8NI77 whole entry): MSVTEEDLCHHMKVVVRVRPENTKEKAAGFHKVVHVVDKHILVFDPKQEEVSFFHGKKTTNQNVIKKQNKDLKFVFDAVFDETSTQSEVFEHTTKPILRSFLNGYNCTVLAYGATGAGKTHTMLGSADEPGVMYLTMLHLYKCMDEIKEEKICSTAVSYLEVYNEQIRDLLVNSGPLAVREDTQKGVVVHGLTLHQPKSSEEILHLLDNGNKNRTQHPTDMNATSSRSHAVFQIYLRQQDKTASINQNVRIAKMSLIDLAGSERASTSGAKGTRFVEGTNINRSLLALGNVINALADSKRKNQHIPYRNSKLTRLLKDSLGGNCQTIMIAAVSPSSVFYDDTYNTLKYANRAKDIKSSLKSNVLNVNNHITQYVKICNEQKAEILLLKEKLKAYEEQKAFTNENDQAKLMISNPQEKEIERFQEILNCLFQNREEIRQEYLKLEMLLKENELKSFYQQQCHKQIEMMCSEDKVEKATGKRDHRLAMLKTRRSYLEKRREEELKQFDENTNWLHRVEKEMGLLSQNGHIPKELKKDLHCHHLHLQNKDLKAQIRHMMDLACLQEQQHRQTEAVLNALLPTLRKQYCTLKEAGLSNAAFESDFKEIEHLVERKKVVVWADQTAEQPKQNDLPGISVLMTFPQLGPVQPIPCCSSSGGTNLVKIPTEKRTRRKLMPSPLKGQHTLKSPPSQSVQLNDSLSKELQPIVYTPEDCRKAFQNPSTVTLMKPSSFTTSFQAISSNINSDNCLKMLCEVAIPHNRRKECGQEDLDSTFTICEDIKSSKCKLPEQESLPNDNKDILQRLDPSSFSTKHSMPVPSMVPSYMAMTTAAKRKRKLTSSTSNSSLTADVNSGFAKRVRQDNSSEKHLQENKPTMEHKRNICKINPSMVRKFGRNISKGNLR

[13] = Volume of distribution at steady state in CD-1 mouse at 1 mg/kg, iv and 10 mg/kg, po; format: ADME, organism-based; conditions: in vivo
[14] = Unbound fraction in plasma (unknown origin) by ultracentrifugation; format: ADME, cell-free
OVCAR-3 [15] = assay: Induction of mitotic arrest in human OVCAR-3 cells assessed as p-histone H3 incubated for 24 hrs by mitotic - imaging assay; format: functional, cell-based; conditions: OVCAR-3, 24 h

Chain of Centromere-associated protein E (Q02224 whole entry): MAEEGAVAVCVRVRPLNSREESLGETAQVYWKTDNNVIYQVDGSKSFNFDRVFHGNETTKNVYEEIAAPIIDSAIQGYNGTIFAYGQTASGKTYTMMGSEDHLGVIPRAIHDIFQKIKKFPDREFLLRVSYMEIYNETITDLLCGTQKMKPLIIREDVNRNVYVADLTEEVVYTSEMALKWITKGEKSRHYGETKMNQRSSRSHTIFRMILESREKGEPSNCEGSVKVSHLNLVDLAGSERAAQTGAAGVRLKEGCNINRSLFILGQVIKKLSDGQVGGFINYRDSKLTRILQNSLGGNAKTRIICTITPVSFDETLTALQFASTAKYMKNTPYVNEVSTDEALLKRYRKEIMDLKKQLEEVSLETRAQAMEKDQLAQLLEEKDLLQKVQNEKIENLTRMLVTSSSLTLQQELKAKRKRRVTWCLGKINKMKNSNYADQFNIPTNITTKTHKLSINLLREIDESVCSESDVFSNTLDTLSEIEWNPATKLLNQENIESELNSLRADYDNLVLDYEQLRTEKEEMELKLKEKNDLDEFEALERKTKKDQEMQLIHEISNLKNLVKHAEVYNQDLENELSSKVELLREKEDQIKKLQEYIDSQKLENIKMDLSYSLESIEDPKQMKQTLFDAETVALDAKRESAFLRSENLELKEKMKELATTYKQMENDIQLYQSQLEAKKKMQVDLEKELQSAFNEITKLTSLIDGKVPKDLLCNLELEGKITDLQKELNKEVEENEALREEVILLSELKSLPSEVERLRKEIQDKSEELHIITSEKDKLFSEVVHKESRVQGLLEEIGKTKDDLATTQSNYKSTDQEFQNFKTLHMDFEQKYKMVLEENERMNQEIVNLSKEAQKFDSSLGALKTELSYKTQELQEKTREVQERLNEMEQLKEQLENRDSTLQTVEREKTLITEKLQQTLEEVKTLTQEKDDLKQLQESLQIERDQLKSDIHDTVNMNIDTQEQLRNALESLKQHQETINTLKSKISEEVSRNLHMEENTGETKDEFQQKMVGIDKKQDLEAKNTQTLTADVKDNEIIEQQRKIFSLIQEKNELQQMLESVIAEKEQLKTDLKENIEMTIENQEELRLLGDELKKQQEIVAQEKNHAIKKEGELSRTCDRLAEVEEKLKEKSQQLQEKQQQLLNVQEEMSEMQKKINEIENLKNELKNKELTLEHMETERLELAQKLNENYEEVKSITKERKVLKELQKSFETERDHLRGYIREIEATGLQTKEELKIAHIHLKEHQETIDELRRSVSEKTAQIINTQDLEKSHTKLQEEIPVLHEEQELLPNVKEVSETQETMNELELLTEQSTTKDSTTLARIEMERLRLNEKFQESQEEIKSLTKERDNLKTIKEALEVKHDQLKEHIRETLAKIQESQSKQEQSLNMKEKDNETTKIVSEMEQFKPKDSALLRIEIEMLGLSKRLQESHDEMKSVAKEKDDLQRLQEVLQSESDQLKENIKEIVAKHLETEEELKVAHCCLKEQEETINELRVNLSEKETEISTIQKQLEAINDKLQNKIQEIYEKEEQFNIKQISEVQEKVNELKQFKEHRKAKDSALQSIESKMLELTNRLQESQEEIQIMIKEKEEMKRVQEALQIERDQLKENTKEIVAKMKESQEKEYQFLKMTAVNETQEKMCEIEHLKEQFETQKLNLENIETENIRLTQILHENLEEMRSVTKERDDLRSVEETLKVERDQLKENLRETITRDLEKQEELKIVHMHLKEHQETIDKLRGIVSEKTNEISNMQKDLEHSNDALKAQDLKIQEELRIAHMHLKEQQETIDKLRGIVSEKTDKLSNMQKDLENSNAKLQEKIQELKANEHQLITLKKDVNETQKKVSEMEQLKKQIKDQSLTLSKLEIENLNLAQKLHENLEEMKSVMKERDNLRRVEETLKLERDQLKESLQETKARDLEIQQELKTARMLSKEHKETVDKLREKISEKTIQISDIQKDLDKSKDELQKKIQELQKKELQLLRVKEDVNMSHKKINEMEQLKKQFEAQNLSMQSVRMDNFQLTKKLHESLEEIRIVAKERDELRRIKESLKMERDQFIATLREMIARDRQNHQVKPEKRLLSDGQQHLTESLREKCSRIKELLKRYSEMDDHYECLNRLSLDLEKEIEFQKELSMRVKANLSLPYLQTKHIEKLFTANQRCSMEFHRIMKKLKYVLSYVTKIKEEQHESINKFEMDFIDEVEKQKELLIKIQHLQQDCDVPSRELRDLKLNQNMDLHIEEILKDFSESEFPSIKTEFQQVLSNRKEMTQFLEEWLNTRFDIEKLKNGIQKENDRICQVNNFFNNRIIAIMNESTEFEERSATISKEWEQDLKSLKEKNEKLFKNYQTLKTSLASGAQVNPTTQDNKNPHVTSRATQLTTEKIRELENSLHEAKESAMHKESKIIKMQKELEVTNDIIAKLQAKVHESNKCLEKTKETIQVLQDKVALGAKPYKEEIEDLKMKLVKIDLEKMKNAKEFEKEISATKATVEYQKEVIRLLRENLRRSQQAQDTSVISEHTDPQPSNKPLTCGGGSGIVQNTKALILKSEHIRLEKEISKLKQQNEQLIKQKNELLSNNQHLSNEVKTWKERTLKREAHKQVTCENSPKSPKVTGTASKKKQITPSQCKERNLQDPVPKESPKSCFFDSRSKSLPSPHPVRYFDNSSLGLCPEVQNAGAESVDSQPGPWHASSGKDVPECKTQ

`CC(C)(C)NS(=O)(=O)c1cccc(NC(=O)c2ncc(NS(C)(=O)=O)nc2N2CCC3(CC2)CC3)n1` gave a bioavailability [1] of 35%, a pIC50 [2] of 4.07 and a concentration at 24 h [3] of 16 nM. The concentration at 24 h [4] was 30 nM, the Time (OVCAR-3 [5]) was “>=12 hr” and the fraction unbound [6] was 0.022. For the same compound, the Cmax [7] was 6100 nM, the half-life [8] was 1.7 h and the concentration at 8 h [9] was 17500 nM. The Cmax [10] was 2150 nM, the solubility kinetic [11] was 209 µM (≈ 112 µg/mL) and the pIC50 [12] was 7.02. It also gave a Vdss [13] of 2 L/kg, a fraction unbound [14] of 0.022 and a pEC50 (OVCAR-3 [15]) of 7.49.
